Target: T1, STAT1 (Homo sapiens, UniProt P42224)
T1 sequence (P42224 1-750): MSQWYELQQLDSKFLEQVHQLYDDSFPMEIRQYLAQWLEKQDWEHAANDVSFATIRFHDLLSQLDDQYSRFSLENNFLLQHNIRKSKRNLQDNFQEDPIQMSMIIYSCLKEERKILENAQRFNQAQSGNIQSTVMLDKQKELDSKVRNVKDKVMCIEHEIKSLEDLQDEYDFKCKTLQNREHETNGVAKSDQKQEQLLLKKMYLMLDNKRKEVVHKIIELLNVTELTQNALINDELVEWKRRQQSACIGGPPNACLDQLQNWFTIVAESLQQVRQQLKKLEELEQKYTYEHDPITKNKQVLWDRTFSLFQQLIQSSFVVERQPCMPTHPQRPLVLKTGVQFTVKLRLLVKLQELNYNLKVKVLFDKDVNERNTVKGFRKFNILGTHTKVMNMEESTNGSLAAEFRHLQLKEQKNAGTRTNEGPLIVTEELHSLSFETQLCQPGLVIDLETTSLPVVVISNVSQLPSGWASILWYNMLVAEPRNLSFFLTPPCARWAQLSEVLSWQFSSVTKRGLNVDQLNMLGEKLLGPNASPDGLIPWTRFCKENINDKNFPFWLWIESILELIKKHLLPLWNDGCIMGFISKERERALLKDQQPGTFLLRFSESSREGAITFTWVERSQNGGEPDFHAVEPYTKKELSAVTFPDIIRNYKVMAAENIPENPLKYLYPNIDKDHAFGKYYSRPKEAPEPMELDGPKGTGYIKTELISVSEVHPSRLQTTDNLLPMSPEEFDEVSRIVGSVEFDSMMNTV
Experiment: Fluorescence polarization (FP) binding assay, STAT1
Protocol: Ki values were calculated from IC50 values using the published equation.[2] […]
Table S2: Activities of 12 against STAT5 proteins in FP assays.
Fluorescence polarization assays
Fluorescence polarization assays were essentially carried out as previously described.[1] These assays quantitate to which extent a test compound is able to interfere with binding between a STAT protein and a fluorescein-labeled phosphotyrosine-containing peptide, which is known to bind to the SH2 domain of the respective STAT protein. The following protein […]
concentrations were used: 100 nM for STAT1, 150 nM for STAT3, 30 nM for STAT4, 180 nM for STAT5a, 90 nM for STAT5b and 105 nM for STAT6. All peptides were used at a concentration of 10 nM. The following peptides were used: 5 -carboxyfluorescein -GpYDKPHVL for STAT1; 5-carboxyfluorescein -GpYLPQTV-NH2 for STAT3; 5-carboxyfluorescein-GpYLPQNID-OH for STAT4; 5-carboxyfluorescein-GpYLVLDKW for STAT5a/b, and 5-carboxyfluorescein-GpYVPWQDLI-OH for STAT6. As a buffer system, 10 mM Tris (pH 8.0), 50 mM NaCl, 1 mM EDTA, 1 mM DTT, 0.1 % Nonidet P-40 substitute, and 2 % DMSO in water was used. All compounds tested were incubated for 1 h with the protein. Subsequently, the fluorescein-labeled peptide was added and the fluorescence polarization was measured with an Infinite F500 plate reader (Tecan) after another hour. IC50 values were converted to Ki-values using the published equation.[2] […]
3:2 solution was added . The solution was degassed by applying ultrasonic under vacuum for one minute four times. 14 mg of Pd(PPh3)4 (12 µmol, 5 mol %) were added and the solution was refluxed overnight. After cooling down, the mixture was extracted with ethyl acetate, washed with brine and dried over Na2SO4. The crude product was purified by flash column […]
Method 2: Synthesis of dibenzylphosphate esters
The corresponding phenol (1 eq.) was dissolved in 10 ml/mmol MeCN or DMF and CCl4 (5 eq.), DIPEA (2 eq.) and DMAP (0.1 eq.) were added. After cooling down to 0°C, dibenzyl phosphite (1.5 eq.) was added dropwise and stirring was continued at the same temperature. […]

Row | Compound | inhibition at 200 µM (read-out: STAT1 inhibition at 200 μM) | IC50 (FP assay) | Ki (FP assay, Ki calculated from IC50 (n=3))
1 | COc1cc(-c2cc(OP(=O)(O)O)cc(-c3cc(F)c(F)c(F)c3)c2)cc(OC)c1OC [6 b] | 51 ± 5% | – | –
2 | COc1cc(-c2cc(-c3cc(F)c(F)c(F)c3)cc(C(F)P(=O)(O)O)c2)cc(OC)c1OC (stereo not drawn) [compound 12] | – | 90.6 ± 0.2 µM | 44.6 ± 0.1 µM

From publication PMC9303812, “Asymmetrically Substituted m‐Terphenyl Phosphates Inhibit the Transcription Factor STAT5a” (Chembiochem, 2021)
